Values of other authors in US20230046963A1, “METHOD FOR DYEING KERATINOUS MATERIAL, COMPRISING THE USE OF AN ORGANOSILICON COMPOUND, A DYEING COMPOUND AND A PRE-TREATMENT AGENT” (Henkel AG & Co. KGaA, priority 2019, published 2023).

Conditions: 25° C.

Q: For O=C([O-])C1=NN(c2ccc(S(=O)(=O)[O-])cc2)C(=O)C1N=Nc1ccc(S(=O)(=O)[O-])cc1.[Na+].[Na+].[Na+] (centres unmarked) [Acid Yellow 23, trisodium salt of 4,5-dihydro-5-oxo-1-(4-sulfophenyl)-4-((4-sulfophenyl)azo)-1H-pyrazole-3-carboxylic acid], which “solubility in water (in words)” value is on record?
A: Its value is “readily soluble in water”.

Q: With Nc1cc(S(=O)(=O)[O-])cc2cc(S(=O)(=O)[O-])c(N=Nc3ccccc3)c(O)c12.[Na+].[Na+] [Acid Red 33, disodium salt of 5-amino-4-hydroxy-3-(phenylazo)-naphthalene-2,7-disulphonate] as the compound, how does the solubility in water read?
A: The solubility in water was 2.5 mg/mL.

Q: For “mixture of the sodium salts of mono- and disulfonic acids of 2-(2-quinolyl)-1H-indene-1,3(2H)-dione [Acid Yellow 3]”, which solubility in water is on record?
A: The solubility in water was 20 mg/mL.

Q: For O=C([O-])c1c(Cl)c(Cl)c(Cl)c(Cl)c1-c1c2c(Br)cc(=O)c(Br)c-2oc2c(Br)c(O)cc(Br)c12.O=C([O-])c1c(Cl)c(Cl)c(Cl)c(Cl)c1-c1c2c(Br)cc(=O)c(Br)c-2oc2c(Br)c(O)cc(Br)c12.[Na+].[Na+] [Acid Red 92, disodium salt of 3,4,5,6-tetrachloro-2-(1,4,5,8-tetrabromo-6-hydroxy-3-oxoxanthen-9-yl)benzoic acid], which solubility in water is on record?
A: Its solubility in water is “greater than 10 g/L”.

Q: With O=S(=O)([O-])c1ccc(N=Nc2c(O)ccc3ccccc23)cc1.[Na+] [Acid Orange 7, sodium salt of 4-[(2-hydroxy-1-naphthyl)azo]benzenesulfonate] as the compound, how does the solubility in water read?
A: Its solubility in water is “more than 7 g/L”.
